Strand notation (5' to 3'): a small letter for the sugar, then the base; units joined by * are phosphorothioate-linked, units joined directly phosphodiester-linked; [ ] holds rarer units or linkages, { } end groups; capitals alone tell only the bases. k = constrained ethyl (cEt); [5mC] = 5-methylcytosine; d = 2'-deoxy (DNA)

The test system of the first data set is Yap1 mRNA. The data set can be described thus: Antisense inhibition of human Yap1 in A-431 cells by cEt gapmers, single dose (Example 2, RTS4814). Type of data set: cell-based. To be noted: A-431 cells, 5,000 cells per well, free uptake, 2,000 nM modified oligonucleotide, approx. 48 hours, RTS4814, normalized to RIBOGREEN; Table 4; asterisk (*) = targets amplicon region of primer probe set. The procedure, abridged: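 Each 16-nucleoside gapmer (ten-deoxy gap, three-cEt wings) is tested once at 2,000 nM in A-431 cells by free uptake. Yap1 mRNA after about 48 hours is measured by quantitative RT-PCR and expressed relative to untreated control.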
Turning to “716505 (antisense kG*kA*kT*dT*dT*dA*dA*dT*d[5mC]*dT*dT*dT*d[5mC]*kT*kG*k[5mC]) [Compound 716505]”, the “YAP1 (% UTC)” value is on record as 35 % UTC. For “716508 (antisense k[5mC]*kT*kA*dG*dG*dT*dA*dG*dA*dA*dT*dT*dT*k[5mC]*kA*kT) [Compound 716508]”, the “YAP1 (% UTC)” value stood at 67 % UTC. Turning to “716511 (antisense kG*kA*kT*d[5mC]*dT*dT*d[5mC]*dT*dG*d[5mC]*dA*d[5mC]*dA*kT*kT*kA) [Compound 716511]”, the “YAP1 (% UTC)” value turned out to be 51 % UTC. Still for that read-out and setting: with “716514 (antisense kG*k[5mC]*kT*dG*dA*dT*dA*dT*dA*dT*dA*dA*dG*kA*kT*kA) [Compound 716514]” the figure was 68 % UTC; with “716517 (antisense kT*kT*k[5mC]*dA*d[5mC]*dA*dA*d[5mC]*d[5mC]*d[5mC]*d[5mC]*d[5mC]*d[5mC]*k[5mC]*k[5mC]*k[5mC]) [Compound 716517]”, 53 % UTC; with “716520 (antisense kA*kG*kT*d[5mC]*dT*dT*dT*dA*dT*dT*dA*dA*dA*kG*kA*kG) [Compound 716520]”, 96 % UTC.

For “716523 (antisense k[5mC]*kA*kA*dA*dT*dT*dA*dA*dA*dG*dT*dT*dG*kA*kG*kG) [Compound 716523]”, the “YAP1 (% UTC)” value is 37 % UTC. “716526 (antisense kT*k[5mC]*kA*dA*dA*dG*d[5mC]*dA*d[5mC]*dT*dG*dT*dG*k[5mC]*k[5mC]*kA) [Compound 716526]”: the “YAP1 (% UTC)” value is 88 % UTC.

On to “716529 (antisense k[5mC]*kA*kA*dA*d[5mC]*dT*d[5mC]*dA*dA*dA*dA*dA*dG*kG*kG*kA) [Compound 716529]”, for which the “YAP1 (% UTC)” value turned out to be 61 % UTC.

As for “716532 (antisense k[5mC]*kA*kA*dG*dA*dA*dG*d[5mC]*dA*dG*dT*dT*dA*kA*kG*k[5mC]) [Compound 716532]”, the “YAP1 (% UTC)” value is reported as 70 % UTC. On the same count and under the same terms, with “716535 (antisense k[5mC]*k[5mC]*kT*dG*dA*d[5mC]*dT*dG*dA*dA*dA*dA*dT*kA*kA*k[5mC]) [Compound 716535]” the figure was 86 % UTC; with “716538 (antisense kT*k[5mC]*kT*dG*dA*dA*dA*d[5mC]*dT*d[5mC]*d[5mC]*dA*dA*kA*kT*k[5mC]) [Compound 716538]”, 77 % UTC; with “716541 (antisense kT*kA*kA*dA*dG*dG*d[5mC]*dA*d[5mC]*dT*dA*d[5mC]*dA*kT*kT*kT) [Compound 716541]”, 92 % UTC.

Staying with this data set, now noted: Table 5; A-431 cells, 5,000 cells per well, free uptake, 2,000 nM modified oligonucleotide, approx. 48 hours; RTS4814; normalized to RIBOGREEN; Yap1 mRNA relative to untreated control cells.
As for “716506 (antisense kT*k[5mC]*kT*dG*d[5mC]*dA*dG*dT*dG*dG*d[5mC]*d[5mC]*dA*kT*kT*kT) [Compound 716506]”, the “YAP1 (% UTC)” value was 62 % UTC. “716509 (antisense kT*kA*kT*dA*d[5mC]*d[5mC]*d[5mC]*dA*dA*dT*dT*dT*dT*kG*k[5mC]*kA) [Compound 716509]”: the “YAP1 (% UTC)” value is 70 % UTC. Regarding “716512 (antisense kA*k[5mC]*kT*d[5mC]*d[5mC]*dT*dT*d[5mC]*d[5mC]*dA*dA*dG*dT*kA*kG*k[5mC]) [Compound 716512]”, the “YAP1 (% UTC)” value is 99 % UTC.

Turning to “716515 (antisense kT*kA*kA*dG*d[5mC]*dT*dA*dA*dA*dG*d[5mC]*dT*dA*kA*kT*k[5mC]) [Compound 716515]”, the “YAP1 (% UTC)” value stood at 123 % UTC.

As to “716518 (antisense k[5mC]*kA*kA*dG*dG*dT*d[5mC]*d[5mC]*d[5mC]*d[5mC]*d[5mC]*dT*dA*kA*kA*kT) [Compound 716518]”, the “YAP1 (% UTC)” value was 88 % UTC. Still for that read-out and setting: in the case of “716521 (antisense k[5mC]*kA*kG*d[5mC]*dA*d[5mC]*dG*dG*dT*dG*dT*dA*dA*kG*kA*k[5mC]) [Compound 716521]” it was 79 % UTC; in that of “716527 (antisense kA*kG*kT*dA*d[5mC]*dA*dG*dA*dG*dG*dG*d[5mC]*dA*kT*k[5mC]*kG) [Compound 716527]”, 64 % UTC.

For the substance “716530 (antisense kA*k[5mC]*kA*dT*d[5mC]*dA*dA*dG*dG*d[5mC]*dT*dA*dT*kG*kA*kT) [Compound 716530]”, the “YAP1 (% UTC)” value was 83 % UTC.

Turning to “716533 (antisense k[5mC]*kA*kA*dT*dT*d[5mC]*dA*dA*dG*dA*dA*dT*dA*k[5mC]*k[5mC]*k[5mC]) [Compound 716533]”, the “YAP1 (% UTC)” value turned out to be 64 % UTC.

In the case of “716536 (antisense kA*kA*kG*dT*dA*dG*dA*dT*d[5mC]*dT*dA*dA*dG*kA*kA*kG) [Compound 716536]”, the “YAP1 (% UTC)” value came out at 94 % UTC. On the same count and under the same terms, with “716539 (antisense kA*kA*kT*dA*dG*dT*dG*d[5mC]*dT*dT*dT*dG*dG*kA*kA*kG) [Compound 716539]” the figure was 59 % UTC.

The data set is the same for the next values; noted with them: Table 6; A-431 cells, 5,000 cells per well, free uptake, 2,000 nM modified oligonucleotide, approx. 48 hours; RTS4814; normalized to RIBOGREEN; Yap1 mRNA relative to untreated control cells.
“716504 (kA*kT*kA*dA*dA*dA*dG*d[5mC]*d[5mC]*dT*dT*dA*dG*kA*kG*kT; antisense) [Compound 716504]”: the “YAP1 (% UTC)” value is on record as 112 % UTC.

Regarding “716507 (antisense kA*k[5mC]*kT*dA*d[5mC]*dT*d[5mC]*dT*dA*dA*dA*dA*d[5mC]*kT*k[5mC]*k[5mC]) [Compound 716507]”, the “YAP1 (% UTC)” value amounted to 53 % UTC. On the same count and under the same terms, in the case of “716510 (antisense k[5mC]*kA*kA*d[5mC]*dA*dT*dG*d[5mC]*dT*dA*dT*dG*dT*kA*kA*kT) [Compound 716510]” it was 122 % UTC; in that of “716513 (antisense kA*kA*kT*d[5mC]*dT*dT*dA*dA*dT*d[5mC]*dT*dG*dT*kG*kG*k[5mC]) [Compound 716513]”, 30 % UTC; in that of “716516 (antisense kA*kA*k[5mC]*dT*dT*dT*d[5mC]*d[5mC]*d[5mC]*dA*d[5mC]*d[5mC]*d[5mC]*kT*k[5mC]*k[5mC]) [Compound 716516]”, 84 % UTC. With “716519 (antisense kG*kT*kT*dT*dA*dT*dA*dA*dA*dG*dT*dT*d[5mC]*kT*k[5mC]*kT) [Compound 716519]”, the “YAP1 (% UTC)” value was 57 % UTC. Turning to “716522 (antisense kG*kT*kG*dA*d[5mC]*dT*dG*dA*dA*dA*d[5mC]*dT*d[5mC]*kT*kA*kG) [Compound 716522]”, the “YAP1 (% UTC)” value was 47 % UTC. On to “716525 (antisense k[5mC]*kA*k[5mC]*dA*dG*dT*dA*d[5mC]*dT*dG*d[5mC]*dT*dA*k[5mC]*kA*kA) [Compound 716525]”, for which the “YAP1 (% UTC)” value is listed as 64 % UTC.

“716528 (antisense kT*kT*kA*dG*dG*dT*d[5mC]*dT*d[5mC]*d[5mC]*dT*dT*d[5mC]*kA*kG*kG) [Compound 716528]”: the “YAP1 (% UTC)” value was found to be 70 % UTC. Same read-out and setting: with “716531 (antisense kG*kG*kA*d[5mC]*dA*dT*dA*dA*dA*dA*d[5mC]*dA*dA*kG*kA*kG) [Compound 716531]” the figure was 65 % UTC. Still for that read-out and setting: in the case of “716534 (antisense kG*kA*kT*dT*dA*dT*dA*dA*dA*dA*dT*dT*dG*kG*kT*kT) [Compound 716534]” it was 90 % UTC. For “716537 (antisense kA*kT*kG*dT*dG*d[5mC]*dT*d[5mC]*d[5mC]*dA*dT*d[5mC]*dA*kA*k[5mC]*k[5mC]) [Compound 716537]”, the “YAP1 (% UTC)” value came out at 36 % UTC. Same read-out and setting: in the case of “716540 (antisense kG*kA*kA*dA*dA*dG*dT*dT*dA*dT*dT*dA*d[5mC]*kA*kA*k[5mC]) [Compound 716540]” it was 120 % UTC.

These data come from patent US11214803B2, “Modulators of YAP1 expression” (Ionis Pharmaceuticals, Inc., priority 2019, dated 2022).
